Consider 13 compounds from patent US7786113B2, “Heterocyclic carbamate derivatives, their manufacture and use as pharmaceutical agents” (Hoffman-La Roche Inc., priority 2004, dated 2010).

The target in one data set is T1, Lck (p56^lck) (Homo sapiens, UniProt P06239).
T1 construct: purchased UBI, Upstate Biotech, Inc
The data set is described as follows: SRC-Inhibitor-Assay (time-resolved fluorescence kinase assay), Lck. In kind it is biochemical. As to conditions: ATP 5 μM, peptide 10 μM, enzyme 2.5 U/ml, pH 7.3. An excerpt: (§1) The activity of the compounds according to this invention as inhibitors for the src-family tyrosine kinases was shown by using the following assay.
(§2) ATP, Tween™ 20, 4-(2-hydroxyethyl)-1-piperazineethanesulfonic acid (HEPES) were purchased from Roche Molecular Biochemicals, MgCl2 and MnCl2 were purchased from Merck Eurolab, Tris(2-carboxyethyl)phosphine hydrochloride (TCEP) was purchased from Pierce, 384 Well low volume fluorescence plates was purchased from Falcon.
(§3) At first the enzyme is pre-incubated for 15 min. at 15° C. in aqueous solution with corresponding amounts of inhibitors according to this invention. Then the phosphorylation reaction is started by adding a reaction mixture, containing ATP, Peptide and PT66, and subsequent shaking. The proceeding of this reaction is immediately monitored using time resolved fluorescence spectroscopy in a suitable well plate reader.
(§4) The IC50-values can be obtained from the reaction rates by using a non-linear curve fit (XLfit software (ID Business Solution Ltd., Guilford, Surrey, UK))

The target in the next data set is T2, Src (p60^c-src) (Homo sapiens, UniProt P12931).
T2 construct: purchased UBI, Upstate Biotech, Inc
The data set is described as follows: SRC-Inhibitor-Assay (time-resolved fluorescence kinase assay), Src. It is filed as biochemical. As to conditions: ATP 5 μM, peptide 10 μM, enzyme 2.5 U/ml, pH 7.3.
Description: as §1, §2, §3, §4

T1 sequence (P06239 whole entry): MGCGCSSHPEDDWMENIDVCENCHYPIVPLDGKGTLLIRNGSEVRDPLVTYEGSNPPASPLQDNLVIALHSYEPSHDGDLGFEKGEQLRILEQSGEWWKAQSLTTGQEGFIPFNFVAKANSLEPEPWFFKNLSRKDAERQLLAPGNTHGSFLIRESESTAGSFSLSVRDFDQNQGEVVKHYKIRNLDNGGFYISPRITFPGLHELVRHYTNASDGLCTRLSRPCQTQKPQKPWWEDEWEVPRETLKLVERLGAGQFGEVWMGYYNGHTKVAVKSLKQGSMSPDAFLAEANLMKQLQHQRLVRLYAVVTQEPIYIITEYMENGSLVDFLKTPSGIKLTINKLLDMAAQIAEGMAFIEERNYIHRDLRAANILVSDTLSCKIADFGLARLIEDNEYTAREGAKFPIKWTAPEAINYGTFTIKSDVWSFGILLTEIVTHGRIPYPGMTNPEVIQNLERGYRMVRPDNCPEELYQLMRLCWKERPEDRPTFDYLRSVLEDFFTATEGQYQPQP
T2 sequence (P12931 whole entry): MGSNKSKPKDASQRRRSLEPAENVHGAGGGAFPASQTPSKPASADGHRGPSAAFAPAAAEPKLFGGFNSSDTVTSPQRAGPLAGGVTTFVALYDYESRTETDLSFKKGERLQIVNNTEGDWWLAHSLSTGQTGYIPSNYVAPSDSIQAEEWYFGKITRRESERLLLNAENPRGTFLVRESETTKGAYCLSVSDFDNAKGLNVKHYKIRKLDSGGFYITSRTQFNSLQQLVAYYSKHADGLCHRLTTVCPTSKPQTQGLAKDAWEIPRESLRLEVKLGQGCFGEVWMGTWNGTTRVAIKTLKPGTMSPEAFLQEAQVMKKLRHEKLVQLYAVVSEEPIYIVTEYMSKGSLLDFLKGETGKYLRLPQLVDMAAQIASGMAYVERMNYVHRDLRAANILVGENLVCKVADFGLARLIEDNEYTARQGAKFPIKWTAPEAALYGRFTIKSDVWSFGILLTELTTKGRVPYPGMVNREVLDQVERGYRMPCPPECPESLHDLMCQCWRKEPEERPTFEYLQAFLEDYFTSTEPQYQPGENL

Consider `CC(C)OC(=O)Nc1cnc2[nH]c(-c3ccsc3)nc2c1` [Example 2-7, (2-Thiophen-3-yl-3H-imidazo[4,5-b]pyridin-6-yl)-carbamic acid isopropyl ester], for which the melting point (usually the temperature of the solid-liquid transition) was 342 °C (dec.).

Turning to `COCCOc1ccc(-c2cc3cc(NC(=O)OC(C)C)cnc3[nH]2)cc1` [Example 9-17, {2-[4-(2-Methoxy-ethoxy)-phenyl]-1H-pyrrolo[2,3-b]pyridin-5-yl}-carbamic acid isopropyl ester], the figures for the IC50 against Lck (p56^lck) and against Src (p60^c-src) were 0.1 to 9 µM and 0.01 to 0.5 µM, respectively.

On to `COCCOc1ccc(-c2cc3cc(NC(=O)OCC(C)C)cnc3[nH]2)cc1` [Example 9-19, {2-[4-(2-Methoxy-ethoxy)-phenyl]-1H-pyrrolo[2,3-b]pyridin-5-yl}-carbamic acid isobutyl ester], for which the half-inhibitory concentration (IC50) (usually the concentration that gives 50% inhibition) on Lck (p56^lck) is 0.1 to 9 µM; on Src (p60^c-src), 0.01 to 0.5 µM.

On to `CC(=O)Nc1cccc(-c2cc3cc(NC(=O)OC(C)C)cnc3[nH]2)c1` [Example 9-20, [2-(3-Acetylamino-phenyl)-1H-pyrrolo[2,3-b]pyridin-5-yl]-carbamic acid isopropyl ester], for which the figures for the 50% inhibitory concentration (IC50) on Lck (p56^lck) and on Src (p60^c-src) were 0.1 to 9 µM and 0.01 to 0.5 µM, respectively.

For the compound `CC(=O)Nc1cccc(-c2cc3cc(NC(=O)OCc4ccccc4)cnc3[nH]2)c1` [Example 9-23, [2-(3-Acetylamino-phenyl)-1H-pyrrolo[2,3-b]pyridin-5-yl]-carbamic acid benzyl ester], the IC50 on Lck (p56^lck) was in the range of 0.1 to 9 µM; against Src (p60^c-src) it was 0.01 to 0.5 µM.

In the case of `CC(=O)Nc1ccc(-c2cc3cc(NC(=O)OCC(C)(C)C)cnc3[nH]2)cc1` [Example 9-25, [2-(4-Acetylamino-phenyl)-1H-pyrrolo[2,3-b]pyridin-5-yl]-carbamic acid 2,2-dimethyl-propyl ester], the IC50 against Lck (p56^lck) fell in the range of 0.1 to 9 µM; at Src (p60^c-src) it was 0.01 to 0.5 µM.

As for `CC(=O)Nc1cccc(-c2cc3cc(NC(=O)OCC(C)C)cnc3[nH]2)c1` [Example 9-28, [2-(3-Acetylamino-phenyl)-1H-pyrrolo[2,3-b]pyridin-5-yl]-carbamic acid isobutyl ester], the IC50 on Lck (p56^lck) lay within 0.1 to 9 µM; on Src (p60^c-src) it was 0.01 to 0.5 µM.

With `CC(C)OC(=O)Nc1cnc2[nH]c(-c3ccc(F)c(F)c3)nc2c1` [Example 10-1, [2-(3,4-Difluoro-phenyl)-3H-imidazo[4,5-b]pyridin-6-yl]-carbamic acid isopropyl ester], the IC50 fell in the range of 0.1 to 9 µM against Lck (p56^lck) and 0.01 to 0.5 µM against Src (p60^c-src).

As for `COCCN(CCOC)c1ccc(-c2nc3cc(NC(=O)OC(C)C)cnc3[nH]2)cc1F` [Example 10-2, (2-{4-[Bis-(2-methoxy-ethyl)-amino]-3-fluoro-phenyl}-3H-imidazo[4,5-b]pyridin-6-yl)-carbamic acid isopropyl ester], the half-inhibitory concentration (IC50) on Lck (p56^lck) fell in the range of 0.1 to 9 µM; at Src (p60^c-src), 0.01 to 0.5 µM.

Regarding `CC(C)OC(=O)Nc1cnc2[nH]c(-c3cccc(C(=O)O)c3)nc2c1` [Example 11-1, 3-(6-Isopropoxycarbonylamino-3H-imidazo[4,5-b]pyridin-2-yl)-benzoic acid], the half-inhibitory concentration (IC50) is 2 to 9 µM on Lck (p56^lck) and 0.5 to 1.5 µM on Src (p60^c-src).

With `COCC(COC)NC(=O)c1cccc(-c2nc3cc(NC(=O)OC(C)C)cnc3[nH]2)c1` [Example 11-2, {2-[3-(2-Methoxy-1-methoxymethyl-ethylcarbamoyl)-phenyl]-3H-imidazo[4,5-b]pyridin-6-yl}-carbamic acid isopropyl ester], the half-maximal inhibitory concentration (IC50) against Lck (p56^lck) lay in the range of 0.1 to 9 µM; against Src (p60^c-src) it was 0.01 to 0.5 µM.

For the compound `COCCCNC(=O)c1cccc(-c2nc3cc(NC(=O)OC(C)C)cnc3[nH]2)c1` [Example 11-3, {2-[3-(3-Methoxy-propylcarbamoyl)-phenyl]-3H-imidazo[4,5-b]pyridin-6-yl}-carbamic acid isopropyl ester], the half-maximal inhibitory concentration (IC50) at Lck (p56^lck) lay within 0.1 to 9 µM; against Src (p60^c-src) it was 0.01 to 0.5 µM.

Turning to `CC(C)OC(=O)Nc1cnc2[nH]c(-c3ccnc(Cl)c3)nc2c1` [Example 12-1, [2-(2-Chloro-pyridin-4-yl)-3H-imidazo[4,5-b]pyridin-6-yl]-carbamic acid isopropyl ester], the IC50 against Lck (p56^lck) lay in the range of 0.1 to 9 µM; against Src (p60^c-src), 0.01 to 0.5 µM.
